This series in a line: Human HepG2 cell viability assay in 384 well format. It counts as toxicity, cell-based. On the set-up: dose 125 nL, time 70.5 hour; cytotoxicity at 70.5 h: concentration not given beside the values. The settings on record: HepG2 cells, read-out: Inhibition.
For `O=C(c1cnccn1)N1CCc2onc(Cn3cccn3)c2C1`, the cytotoxicity at 70.5 h was -6.72%.

Turning to `O=C1NCC2(CCCN(C(=O)c3c[nH]nc3C3CCCCC3)C2)O1` (stereo not given), the cytotoxicity at 70.5 h was -10.2%.

As for `CCN1CC2(CCC1=O)CCN(C(=O)c1ccc(C)cc1O)CC2`, the cytotoxicity at 70.5 h is -14.7%.

As for `CN(Cc1cccc(-n2cccn2)c1)c1cc(N2CCCC2)nc(N)n1`, the cytotoxicity at 70.5 h was -16.8%.

For `COCCCC1(C(=O)O)CCCN(Cc2ccccc2C)C1` (stereo not given), the cytotoxicity at 70.5 h was -4.89%.

`Cn1cc2ncn(C3CCN(c4ccccc4F)CC3)c(=O)c2n1`: the cytotoxicity at 70.5 h is -11%.

Turning to `CCC1(CO)CCCN(C(=O)c2ccc(N3CCN(C)CC3)cc2)C1` (stereo not given), the cytotoxicity at 70.5 h was -4.46%.

In the case of `O=C(NCc1ccc(CO)cc1)C1CCOc2ccccc2C1` (stereo not given), the cytotoxicity at 70.5 h is 4.54%.

Take `COCc1cn(CC2CCN(Cc3nc(C)c[nH]3)CC2)nn1`: the cytotoxicity at 70.5 h was -8.76%.

In the case of `Cc1ccsc1C(=O)N1C[C@@H](C(=O)O)[C@H](C(C)C)C1`, the cytotoxicity at 70.5 h stood at 0.968%.

For the compound `CC(C)C(C(=O)N1CCC2(CC1)CN(C)C(=O)O2)c1ccccc1` (stereo not given), the cytotoxicity at 70.5 h is -8.69%.

Regarding `CNc1nc(C)cc(N2CCC(C(=O)O)(n3ccc(C(C)C)n3)CC2)n1`, the cytotoxicity at 70.5 h was -4.47%.

Turning to `CN1CCN(Cc2nnc(C3CCN(S(C)(=O)=O)CC3)n2C)CC1`, the cytotoxicity at 70.5 h was -20.6%.

For `CC(C)Cc1ncc2c(n1)CN(c1cc(NC3CC3)nc(N)n1)C2`, the cytotoxicity at 70.5 h worked out at 0.238%.

With `Cc1cccc(C)c1OC1CN(Cc2cnc(N3CCCC3)nc2)C1`, the cytotoxicity at 70.5 h is 27.2%.

Turning to `CO[C@H]1COC[C@@H]1NC(=O)C1(Oc2ccc(Cl)cc2)CCNCC1`, the cytotoxicity at 70.5 h was -6.36%.

Turning to `COCCN1CCC(C(=O)N(C)Cc2cccc(Cl)c2)C1` (stereo not given), the cytotoxicity at 70.5 h was determined as 32%.

`O=C(c1ccc2nccn2c1)N(CCO)Cc1ccccc1F`: the cytotoxicity at 70.5 h came out at 3.35%.

Take `COCCCN1CCC(CNc2nccc(-c3cnn(C)c3)n2)C1` (stereo not given): the cytotoxicity at 70.5 h was -6.55%.

`CCOCc1nc2c(c(N3CC=CC3)n1)CCN(CC1CC1)CC2`: the cytotoxicity at 70.5 h came to 9.81%.

Consider `Cc1ccc2oc(CN3CCn4nc(CCC(=O)O)cc4C3)c(C)c2c1`, for which the cytotoxicity at 70.5 h amounted to 32%.

On to `COc1cccc2c1OCC(C(=O)NCCc1nnc(N)s1)C2` (stereo not given), for which the cytotoxicity at 70.5 h was -5.75%.

For `CCc1cc(N2CCC(N3CCSCC3)CC2)n2nccc2n1`, the cytotoxicity at 70.5 h was -7.5%.

On to `CCc1ccc(CCNc2ncnc3c2CCN(C(=O)C2CC2)C3)cc1`, for which the cytotoxicity at 70.5 h is 7.48%.

With `Cc1cnc(C)c(N2C[C@H]3OC(=O)N(C4CCCC4)[C@H]3C2)n1`, the cytotoxicity at 70.5 h was -6.45%.

`CCCN1CCN(S(=O)(=O)c2ccccc2OC)[C@H]2CS(=O)(=O)C[C@H]21`: the cytotoxicity at 70.5 h is -16.5%.

As for `CN(C)CCNC(=O)c1ccc(S(=O)(=O)N[C@@H]2CCNC2)cc1`, the cytotoxicity at 70.5 h is -13.7%.

Turning to `CC(C)Cc1nc(CN2CCC3(CCCO3)CCC2=O)no1` (stereo not given), the cytotoxicity at 70.5 h is 0.922%.

`COc1ccccc1OC1CCN(C(=O)c2cccc(O)c2C)CC1`: the cytotoxicity at 70.5 h is -4.78%.

Regarding `CCC(CC)CN(C)Cc1nc(-c2ccccc2NS(C)(=O)=O)oc1C`, the cytotoxicity at 70.5 h is -5.33%.

Take `CC(CCn1cccn1)N1CCC(n2cc(C(C)(C)N)nn2)CC1` (stereo not given): the cytotoxicity at 70.5 h amounted to 1.2%.

`COCCN1CCN(c2nc(C3CCCC3)nc3c2cnn3C)CC1`: the cytotoxicity at 70.5 h was -16.1%.

`O=C1NCCCC12CCN(S(=O)(=O)N1CCOCC1)C2` (stereo not given): the cytotoxicity at 70.5 h is -6.49%.

For `CN(C)Cc1ccccc1CN(C)C(=O)c1ccoc1`, the cytotoxicity at 70.5 h is -8.04%.

Take `Cc1ccc(N2CCN(C3CCc4ccccc4C3)CC2)nn1` (stereo not given): the cytotoxicity at 70.5 h is -8.25%.

Take `Cc1nn(C)c2ncnc(N3CCCC(OCc4cccnc4)C3)c12` (stereo not given): the cytotoxicity at 70.5 h is -3.45%.

Consider `CCc1cnc(C)nc1NCc1cnc2c(c1)CCC2`, for which the cytotoxicity at 70.5 h was -9.06%.

For the compound `CC(C)c1cc(NCC2(Cn3cccn3)CC2)n2nccc2n1`, the cytotoxicity at 70.5 h is 5.08%.

In the case of `CCS(=O)(=O)c1ncc(CN2CCN(C)CC2)n1CCc1ccccc1`, the cytotoxicity at 70.5 h was -3.88%.

As to `CCC(c1nc(CC(C)C)nn1-c1ccccn1)n1cccn1` (stereo not given), the cytotoxicity at 70.5 h was -12.3%.

Take `CC(=O)c1cc(CC(=O)NCc2cccc(F)c2F)cs1`: the cytotoxicity at 70.5 h was -8.12%.

`Cc1nc(N(C)C)nc(N(C)Cc2cnccn2)c1C`: the cytotoxicity at 70.5 h is -9.41%.

Turning to `Cn1c(CN2CCCC2)nnc1C1CCCN(C(=O)N2CCOCC2)C1` (stereo not given), the cytotoxicity at 70.5 h was -3.17%.

In the case of `CCS(=O)(=O)N1CCC(c2nccn2Cc2ccccn2)CC1`, the cytotoxicity at 70.5 h is -5.3%.

As to `CC(C)NS(=O)(=O)c1cc(C(=O)O)cc(-c2ccccc2C#N)c1`, the cytotoxicity at 70.5 h turned out to be 6.18%.

Consider `Cc1ccc(C)c2c(O)cc(CN[C@H]3CCCCNC3=O)nc12`, for which the cytotoxicity at 70.5 h is -6.91%.

With `O=C(NC1CC(=O)N(C2Cc3ccccc3C2)C1)c1ccoc1` (stereo not given), the cytotoxicity at 70.5 h is -2.92%.

For `CC(C)OC(=O)N1CCCCC1CCn1cccn1` (stereo not given), the cytotoxicity at 70.5 h is -7.8%.

For the compound `CCc1nc(NC(=O)NCCc2scnc2C)nn1C`, the cytotoxicity at 70.5 h was determined as 16.5%.

In the case of `Cc1cc(C)n(C2CCN(Cc3c(-c4cc(C)on4)nn(C)c3Cl)C2)n1` (stereo not given), the cytotoxicity at 70.5 h was -6.11%.

As for `Cc1cccn2c(CC(=O)N3CCC(Oc4ncccn4)CC3)cnc12`, the cytotoxicity at 70.5 h is 25.3%.

As to `CCc1[nH]c2c(CNc3cncc(C(=O)OC)n3)cc(C)cc2c1C`, the cytotoxicity at 70.5 h is 20.4%.

In the case of `CCc1ncc(C(=O)N2CC(N3CCCCC3)C2)cn1`, the cytotoxicity at 70.5 h came out at 25.6%.

For the compound `CC(C)(O)CCc1cccc(C(=O)NCC2COCCO2)c1` (stereo not given), the cytotoxicity at 70.5 h was -1.78%.

As to `C=C(C)COc1ccc(C(=O)NCCn2c(C)cc(C)nc2=O)cc1`, the cytotoxicity at 70.5 h is -6.24%.

`CCN1CCN(S(=O)(=O)N2CCCC2)[C@H]2CS(=O)(=O)C[C@H]21`: the cytotoxicity at 70.5 h was -3.04%.

Turning to `Cc1cccc2cc(CN3CCC(N4CCOCC4)CC3)c(=O)[nH]c12`, the cytotoxicity at 70.5 h was -5.31%.

For `CCN(CC)C(=O)[C@@H]1C[C@@H](n2cc(-c3ccccn3)nn2)CN1`, the cytotoxicity at 70.5 h is -3.65%.

`O=S(=O)(c1c(Cl)nc2sccn12)N1CCCC2(CCNC2)C1` (stereo not given): the cytotoxicity at 70.5 h was -7.18%.

For `CCOCC(=O)N1CCC(c2nccn2C)CC1`, the cytotoxicity at 70.5 h came to 2.76%.

For `Cc1cc(C(=O)N2CC[C@H](N3CCOCC3)[C@H](CCCO)C2)c(C)n1C`, the cytotoxicity at 70.5 h was -16.1%.

On to `CC[C@H]1COCCN1C(=O)CCCn1nnc(-c2ccc(F)cc2)n1`, for which the cytotoxicity at 70.5 h was -1.69%.

Regarding `CC(=O)NC1CCN(c2nc(C)nc3c2c(C)nn3C)C1` (stereo not given), the cytotoxicity at 70.5 h was determined as 20.8%.

For `CN(CC1Cc2ccccc2CN1C)C(=O)CSc1ccccn1` (stereo not given), the cytotoxicity at 70.5 h is -15.7%.

Regarding `O=C(O)[C@@H]1CN(C(=O)Cc2ccccc2Cl)C[C@H]1C1CC1`, the cytotoxicity at 70.5 h is -15.8%.

As to `CNCC(=O)NC1CC(C)(C)Cc2nc(C(C)(C)C)ncc21` (stereo not given), the cytotoxicity at 70.5 h was -18.9%.

`O=C(c1ccco1)N1C[C@H]2CCCN(Cc3ccc(F)cc3)[C@H]2C1`: the cytotoxicity at 70.5 h was -9.54%.

With `Cc1ccc(CN2CCC[C@@H]3CN(C(=O)c4ccco4)C[C@@H]32)s1`, the cytotoxicity at 70.5 h is -11%.

Consider `Cn1cc(CN2CCCC23CCN(C(=O)c2cccs2)CC3)cn1`, for which the cytotoxicity at 70.5 h was -11.6%.

As to `Cc1ccc(CN2Cc3nnn(C)c3C(COCc3ccccc3)C2)o1` (stereo not given), the cytotoxicity at 70.5 h is -8.1%.
